Experimental data: US6326476A, “Heparin derivatives and process for the preparation thereof” (Pharmacia AB, priority 1991, dated 2001)

Test system: Sprague-Dawley rats
Settings: rat, in vivo, 2 mg/kg
Procedure: Res 15 191-197 was performed in Sprague-Dawley rats weighing 200-250 g anaesthetized with Mebumal/Stesolid (Dumex A/S Copenhagen). The template device (Simplate, General Diagnostics, Durham, N.C.) was applied longitudinally to the dorsal part of the tail, taking care to avoid large veins. Blood from the wound was then carefully removed every 30 sec, with blotting paper. A minimum of six rats were used for each compound and dose. Bleeding times were measured from the moment the tail was incised until the first arrest of bleeding. The bleeding time was recorded with an accuracy of 30 sec. Two bleeding times were always determined in each rat, viz. 10 min before and 10 min after drug administration, and the results are expressed as the prolongation of bleeding time.

Prolongation of bleeding time: 12.8 min
Substance: heparin [Standard heparin]
